How the values were obtained:
LNCaP tumors = test: In vivo LNCaP tumor model, intratumoral Compound 3; design: species or system ncr nude male mice
Protocol: Ncr nude male mice, age 5 to 6 weeks, were injected in the right flank with 10^7 LNCaP cells in Matrigel™ (0.1 ml total injection volume). When the tumors reached a predetermined size (50 to 60 mm^3), mice were randomly placed into treatment groups of 6 to 8 mice each. […] Controls received 50 μl of 50 mM HEPES intratumorally daily. Tumors were measured twice a week.
Response to treatment was monitored in two ways. First, mean tumor volume for each group was presented as tumor:control ratio (% T/C) and these values were compared at one point in time. Second, tumor volume versus time was monitored.

alcohol-preferring rats = test: Ethanol consumption in alcohol-preferring rats; type: in vivo, rat; settings: for reduction of ethanol consumption: p<0.05
Protocol: A within-subject design was used where 2-(phosphonomethyl)pentanedioic acid treatments were tested once per week. Baseline ethanol drinking consisted of the mean of the 3 days prior to testing in which saline injections were given. […] 24 hour water and daily body weights were recorded to assess non-specific drug effects. Results were analyzed using paired t-tests with baseline and test day values serving as the independent variables. Ethanol intake was recorded as amount of solution consumed (mls).

cortical cell cultures = test: In vitro ischemia assay (KCN/2-DG) in cortical cell cultures; type: cell-based, rat
[1] = tested on: spinal cord organotypic cultures; test: ALS model: ChAT activity of spinal cord organotypic cultures with THA; type: cell-based, rat
Protocol: Organotypic cultures were prepared from lumbar spinal cord of 8 day old rats, as described by Rothstein et al., J. Neurochem., Vol. 65, No. 2 (1995), and Rothstein et al., Proc. Natl. Acad. Sci. USA, Vol. 90, pp. 6591-6595 (July 1993). In brief, lumbar spinal cords were removed and sliced into […]-thick-dorsal-ventral sections, and five slices were placed on Millipore CM semipermeable 30-mm-diameter membrane inserts. The inserts were placed on 1 ml of culture medium in 35-mm-diameter culture wells. Culture medium consisted of 50% minimal essential medium and phosphate-free HEPES (25 mM), 25% heat-inactivated horse serum, and 25 Hanks' balanced salt solution (GIBCO) supplemented with D-glucose (25.6 mg/ml) and glutamine (2 mM), at a final pH of 7.2. Antibiotic and antifungal agents were not used. Cultures were incubated at 37° C. in 5% CO2 containing humidified environment (Forma Scientific). Culture medium, along with any added pharmacological agents, was changed twice weekly.
Drugs were incubated for an additional 13 to 20 days with the 100 μM THA. At the end of this period, cultures were collected assayed for ChAT activity as described below.
To determine choline acetyltransferase (CHAT) activity, the spinal cord tissues in each dish (five slices) were pooled and frozen (-75° C.) until assay. CHAT activity was measured radiometrically by described methods using [^3 H]acetyl-CoA (Amersham; Fonnum, 1975). Protein content of tissue homogenate was determined by a Coomassi Protein Assay kit (Pierce, Rockford, Ill.).

Sprague-Dawley rats = test: Brain injury following MCAO in Sprague-Dawley rats; type: in vivo, rat; settings: for mean total brain infarct volume: then 20 mg/kg/hr IV 4 hours
[2] = Rattus norvegicus, read-out: % Toxicity

Structure (SMILES): O=C(O)CCC(CP(=O)(O)O)C(=O)O (centres unmarked) [Compound 3, 2-(phosphonomethyl)pentanedioic acid]
- Optimal % T/C (LNCaP tumors; 0.025 μg/day intratumoral): 42 % T/C
- Regressions (LNCaP tumors; 0.025 μg/day intratumoral): 1/7
- Tumor volume after 42 days of treatment (LNCaP tumors; 0.025 μg/day, control 807.3±197.3): 465.7±176 mm^3
- Optimal % T/C (LNCaP tumors; 0.25 μg/day intratumoral): 51 % T/C
- Regressions (LNCaP tumors; 0.25 μg/day intratumoral): 1/7
- Optimal % T/C (LNCaP tumors; 2.5 μg/day intratumoral): 45 % T/C
- Regressions (LNCaP tumors; 2.5 μg/day intratumoral): 0/7
- Optimal % T/C (LNCaP tumors; 25.0 μg/day intratumoral): 76 % T/C
- Regressions (LNCaP tumors; 25.0 μg/day intratumoral): 0/7
- tumor growth (in words) (LNCaP tumors; 0.025, 0.25 and 2.5 μg/day intratumoral): slowed tumor growth substantially
- reduction of ethanol consumption (alcohol-preferring rats; 50 mg/kg IP, 1 hour access): approximately 25%
- ethanol intake (alcohol-preferring rats; 50 mg/kg, saline baseline 8.1±0.6): 6.2±0.9 mls
- reduction of ethanol consumption (alcohol-preferring rats; 100 mg/kg IP, 1 hour access): approximately 25%
- ethanol intake (alcohol-preferring rats; 100 mg/kg, saline baseline 7.8±0.8): 5.8±0.7 mls
- effect on ethanol consumption (in words) (alcohol-preferring rats; 200 mg/kg IP, 1 hour access): no effect
- ethanol intake (alcohol-preferring rats; 200 mg/kg, saline baseline 8.9±0.7): 8±0.5 mls
- body weights and 24 hour water intakes (in words) (alcohol-preferring rats; 50, 100, 200 mg/kg): not altered at any of the 3 doses
- ischemic toxicity (in words) (cortical cell cultures; 100 pM to 1 μM): toxicity decreased as the concentration of 2-(phosphonomethyl)pentanedioic acid increased
- activity at 0.0001 µM (cortical cell cultures; [2]): 66.6 ± 4.38%
- activity at 0.001 µM (cortical cell cultures; [2]): 42.3 ± 9.34%
- activity at 0.01 µM (cortical cell cultures; [2]): 33.1 ± 9.62%
- activity at 0.1 µM (cortical cell cultures; [2]): 30.2 ± 9.43%
- activity at 1 µM (cortical cell cultures; [2]): 8.56 ± 8.22%
- protection against THA-induced toxicity (in words) ([1]; 1 nM to 10 μM, THA 100 μM, 14 days): dose-dependent protection against THA-induced toxicity with maximal effects at 1 μM
- protection from THA toxicity (in words) ([1]; 100 nM - 10 μM with THA): significantly protected the cultures from THA toxicity
- ChAT Activity ([1]; 2-(phosphonomethyl)pentanedioic acid alone): 108 ± 18.4 % of Control
- ChAT Activity ([1]; with THA): 121 ± 18.8 % of Control
- mean total brain infarct volume (Sprague-Dawley rats; 100 mg/kg IP 20 minute pre-treatment, p=0.003 vs. vehicle (293±26)): 122±26 mm^3
- mean total brain infarct volume (Sprague-Dawley rats; 100 mg/kg IP 30 minute post-treatment, p=0.2 vs. vehicle (293±26)): 208±40 mm^3
- mean total brain infarct volume (Sprague-Dawley rats; 100 mg/kg IP 60 minute post-treatment, p=0.015 vs. vehicle (293±26)): 125±57 mm^3
- mean total brain infarct volume (Sprague-Dawley rats; 100 mg/kg IP 120 minute post-treatment, p=0.005 vs. vehicle (293±26)): 133±35 mm^3
- neuroprotection in rat MCAO model (in words) (Sprague-Dawley rats; up to 2 hours post-occlusion): neuroprotective in rat MCAO model of stroke when administered up to 2 hours post-occlusion

Reference: US6121252A, “Phosphinic acid derivatives” (priority 1998, dated 2000)
